In US20220056043A1, “NITROGEN-CONTAINING FUSED CYCLIC COMPOUND, PREPARATION METHOD THEREFOR AND USE THEREOF” (SICHUAN KELUN-BIOTECH BIOPHARMACEUTICAL CO., LTD., priority 2019, published 2022) one finds EC50 data, which are given here for five molecules.

In general, EC50 refers to the concentration giving half of the maximal effect.

One experiment concerns THP1-defNLRP3 cells. Description: Agonistic effect on the expression of IL-1β in NLRP3 deficient THP1 cells (THP1-defNLRP3) after PMA-induced differentiation (HTRF). The format is cell-based, human. The conditions noted are these: Homo sapiens, THP-1; IL-1β level, PMA-differentiated NLRP3 deficient THP1 cells, 6 hours; highest test concentration 30 μM; read-out: hNLRP3 EC50 (μM) (THP-1defNLRP3). An outline of the steps: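 PMA-differentiated (1 μM, 24 h) NLRP3-deficient THP1 macrophages, 1×10^5 cells/well in RPMI 1640 with 2% heat-inactivated FBS, treated with compound for 6 h at 37 °C. Supernatant IL-1β measured by HTRF. EC50 from four-parameter variable-slope fit.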
In general terms: In TR-FRET formats the signal depends on donor and acceptor labels being close together.

The target of another experiment is T1, hTLR8 (Homo sapiens, UniProt Q9NR97).
T1 construct: host or cells: HEK-Blue hTLR8 cells
T1 sequence (Q9NR97 27-1041): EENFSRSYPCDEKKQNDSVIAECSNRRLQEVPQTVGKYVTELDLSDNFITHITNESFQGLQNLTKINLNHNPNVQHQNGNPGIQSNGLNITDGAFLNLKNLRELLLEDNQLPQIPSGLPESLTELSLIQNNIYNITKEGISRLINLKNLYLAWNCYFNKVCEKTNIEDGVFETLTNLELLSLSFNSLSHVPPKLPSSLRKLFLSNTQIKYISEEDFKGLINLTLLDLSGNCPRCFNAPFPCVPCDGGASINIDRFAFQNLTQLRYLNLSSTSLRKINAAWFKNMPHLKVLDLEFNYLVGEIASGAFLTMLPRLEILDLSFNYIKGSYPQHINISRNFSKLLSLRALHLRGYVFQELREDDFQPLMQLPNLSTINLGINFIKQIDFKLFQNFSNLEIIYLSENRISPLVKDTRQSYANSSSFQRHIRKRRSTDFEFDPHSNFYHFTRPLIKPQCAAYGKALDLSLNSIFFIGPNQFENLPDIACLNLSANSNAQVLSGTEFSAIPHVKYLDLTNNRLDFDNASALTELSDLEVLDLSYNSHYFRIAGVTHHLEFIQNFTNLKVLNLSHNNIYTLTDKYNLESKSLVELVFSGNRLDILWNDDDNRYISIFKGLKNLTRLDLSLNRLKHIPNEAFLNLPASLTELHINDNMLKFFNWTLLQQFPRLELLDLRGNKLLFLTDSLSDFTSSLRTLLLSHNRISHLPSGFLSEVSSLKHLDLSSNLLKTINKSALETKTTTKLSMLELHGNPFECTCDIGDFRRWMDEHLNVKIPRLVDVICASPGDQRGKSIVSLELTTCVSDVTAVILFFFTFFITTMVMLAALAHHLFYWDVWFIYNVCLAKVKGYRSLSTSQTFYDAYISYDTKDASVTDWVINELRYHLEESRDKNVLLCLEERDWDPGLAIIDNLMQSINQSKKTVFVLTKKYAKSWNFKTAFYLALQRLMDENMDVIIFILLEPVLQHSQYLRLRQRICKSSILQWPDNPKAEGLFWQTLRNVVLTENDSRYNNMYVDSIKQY
The experiment can be described thus: Agonistic effect on hTLR8, HEK-Blue hTLR8 cells, alkaline phosphatase secretion. Format: cell-based. The conditions noted are these: 16 hours. An outline of the steps: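 HEK-Blue hTLR8 reporter cells were treated with compound (diluted from 10 mM DMSO stock) for 16 h at 37 °C in DMEM/10% FBS. Secreted alkaline phosphatase in supernatant was detected with QUANTI-Blue after 3 h at 37 °C, read at OD620. EC50 came from a four-parameter variable-slope fit.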

For the molecule `Nc1cc(N2CCN(C=O)CC2)c2sc(-c3ccn[nH]3)cc2n1` [Compound 178], the half-maximal effective concentration (EC50) is > 30 µM in the experiment on THP1-defNLRP3 cells and > 100 µM on hTLR8.
For the molecule `Nc1cc(N2CC3CC(C2)N3C=O)c2sc(-c3ccn[nH]3)cc2n1` [Compound 179], the half-maximal effective concentration (EC50) in the experiment with THP1-defNLRP3 cells was > 30 µM; on hTLR8 it was > 100 µM.
As for `COC1CCN(c2cc(N)nc3cc(-c4ccn[nH]4)sc23)C1` (stereo not shown) [Compound 180], the EC50 in the experiment with THP1-defNLRP3 cells is > 30 µM; at hTLR8, > 100 µM.
Taken in the same sequence, the figures for `Nc1cc(N2CC[C@@H](O)C2)c2sc(-c3ccn[nH]3)cc2n1` [Compound 181] were > 30 µM and > 100 µM.
As to `Nc1cc(N[C@H]2C[C@H]2CO)c2sc(-c3ccn[nH]3)cc2n1` [Compound 182s], the EC50 in the experiment on THP1-defNLRP3 cells was > 30 µM; on hTLR8, > 100 µM.
